Each block holds one compound with its values, some of them ahead of it.
Key:
[1] = system: SU-DHL-1; test: Induction of apoptosis in human SU-DHL-1 cells assessed as caspase activation in presence of AZD5991 incubated for 6 hrs by caspaseGlo 3/7 reagent based assay; format: functional, cell-based; conditions: SU-DHL-1, 6 h
[2] = target: T1, BCL2A1/BID (Homo sapiens, UniProt Q16548); test: Inhibition of BFL-1/ BH3 (unknown origin) interaction incubated for 2 hrs by TR-FRET assay; format: protein assay
T1 sequence (Q16548 whole entry): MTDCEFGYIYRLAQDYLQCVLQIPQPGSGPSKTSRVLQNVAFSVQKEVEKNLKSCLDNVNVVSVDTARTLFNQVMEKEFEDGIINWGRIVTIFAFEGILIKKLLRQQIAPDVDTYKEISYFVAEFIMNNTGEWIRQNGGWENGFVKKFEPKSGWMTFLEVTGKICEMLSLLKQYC
T1 sequence (P55957 whole entry): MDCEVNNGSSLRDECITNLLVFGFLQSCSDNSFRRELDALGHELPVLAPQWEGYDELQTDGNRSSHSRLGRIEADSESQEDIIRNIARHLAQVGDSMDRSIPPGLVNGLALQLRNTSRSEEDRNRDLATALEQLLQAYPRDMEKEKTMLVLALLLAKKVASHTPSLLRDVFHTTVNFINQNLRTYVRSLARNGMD

[3] = Lipophilicity, log D of compound in 1-octanol at pH 7.4 incubated for 4 hrs by HPLC-UV analysis; format: physicochemical; conditions: 1-octanol / aqueous phase at pH 7.4, pH 7.4
[4] = Metabolic stability in rat hepatocytes assessed as intrinsic clearance measured per 10^6 cells; format: ADME, cell-based, Hepatocyte
[5] = Metabolic stability in human liver microsome assessed as intrinsic clearance; format: ADME; conditions: human liver microsomes, read-out: CLH
[6] = GSH reactivity in PBS buffer at pH 7.4 assessed as half life by LC-UV/MS analysis; format: physicochemical
[7] = Metabolic stability in mouse hepatocytes assessed as intrinsic clearance measured per 10^6 cells; format: ADME, cell-based, Hepatocyte; conditions: read-out: CLH
[8] = Metabolic stability in human hepatocytes assessed as intrinsic clearance measured per 10^6 cells; format: ADME, cell-based, Hepatocyte; conditions: read-out: CLH
[9] = AUC in CD-1 mouse at 1 mg/kg, po or 0.5 mg/kg, iv measured upto 24 hrs by LC-MS/MS analysis; format: ADME, organism-based; conditions: in vivo
[10] = Apparent permeability across apical to basolateral side in human Caco-2 cells measured upto 120 mins by LC-MS/MS analysis; format: ADME, cell-based
[11] = target: Apoptosis regulator Bcl-2 (Homo sapiens, UniProt P10415); test: Inhibition of BCL2 (unknown origin) by FRET assay
Chain of Apoptosis regulator Bcl-2 (P10415 whole entry): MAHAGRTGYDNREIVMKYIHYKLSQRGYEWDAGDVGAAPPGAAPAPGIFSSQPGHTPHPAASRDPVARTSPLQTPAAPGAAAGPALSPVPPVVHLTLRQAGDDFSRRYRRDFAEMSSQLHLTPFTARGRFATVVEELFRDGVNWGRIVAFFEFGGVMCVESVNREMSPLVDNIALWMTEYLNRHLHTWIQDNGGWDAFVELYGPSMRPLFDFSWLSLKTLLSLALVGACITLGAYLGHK

[12] = Oral bioavailability in CD-1 mouse at 1 mg/kg or 0.5 mg/kg measured upto 24 hrs by LC-MS/MS analysis; format: ADME, organism-based; conditions: in vivo
[13] = Half life in CD-1 mouse at 1 mg/kg, po or 0.5 mg/kg, iv measured upto 24 hrs by LC-MS/MS analysis; format: ADME, organism-based; conditions: in vivo
[14] = Cmax in CD-1 mouse at 1 mg/kg, po or 0.5 mg/kg, iv measured upto 24 hrs by LC-MS/MS analysis; format: ADME, organism-based; conditions: in vivo
[15] = Volume of distribution at steady state in CD-1 mouse at 1 mg/kg, po or 0.5 mg/kg, iv measured upto 24 hrs by LC-MS/MS analysis; format: ADME, organism-based; conditions: in vivo
[16] = system: SU-DHL-1; test: Antiproliferative activity against human SU-DHL-1 cells assessed as cell viability incubated for 24 hrs by celltiter-glo assay; format: functional, cell-based; conditions: SU-DHL-1, 24 h
[17] = target: Bcl-2-like protein 1 (Homo sapiens, UniProt Q07817); test: Inhibition of Bcl-Xl (unknown origin) by FRET assay
Chain of Bcl-2-like protein 1 (Q07817 whole entry): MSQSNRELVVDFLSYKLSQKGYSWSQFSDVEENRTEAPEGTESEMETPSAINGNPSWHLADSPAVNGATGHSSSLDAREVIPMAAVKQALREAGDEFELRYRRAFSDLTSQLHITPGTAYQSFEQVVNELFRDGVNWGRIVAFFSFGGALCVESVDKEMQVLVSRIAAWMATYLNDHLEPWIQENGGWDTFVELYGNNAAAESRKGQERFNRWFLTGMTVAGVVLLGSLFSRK

[18] = Plasma protein binding in mouse assessed as unbound fraction; format: ADME, cell-free
[19] = target: Induced myeloid leukemia cell differentiation protein Mcl-1 (Homo sapiens, UniProt Q07820); test: Inhibition of MCL1 (unknown origin) by FRET assay
Chain of Induced myeloid leukemia cell differentiation protein Mcl-1 (Q07820 whole entry): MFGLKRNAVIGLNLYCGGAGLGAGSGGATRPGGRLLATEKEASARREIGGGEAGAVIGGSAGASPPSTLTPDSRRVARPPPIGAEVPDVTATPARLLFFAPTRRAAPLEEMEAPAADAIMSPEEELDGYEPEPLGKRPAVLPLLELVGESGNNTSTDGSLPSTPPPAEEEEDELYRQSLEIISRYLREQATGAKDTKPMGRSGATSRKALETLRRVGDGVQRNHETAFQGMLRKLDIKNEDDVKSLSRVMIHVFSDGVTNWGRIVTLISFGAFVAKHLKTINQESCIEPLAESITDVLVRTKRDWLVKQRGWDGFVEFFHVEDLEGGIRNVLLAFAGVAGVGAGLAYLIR

SMILES: C=CC(=O)N(c1ccc(O[C@@H]2CC[C@@H](N)C2)c(C)c1)[C@@H](C)c1ccc(Cl)cc1
EC50 [1]: 0.65 µM
IC50 [2]: 0.077 µM

SMILES: C=C(Cl)C(=O)N(Cc1ccc(C(F)(F)F)cc1)c1ccc(O[C@@H]2CC[C@@H](N)C2)cc1 (racemic)
logD at 4 h [3]: 2.4
IC50 [2]: 1 µM
hepatocyte CLint ([4]; hepatocytes): 52 µL/min/1e6 cells
microsomal CLint [5]: 7.8 µL/min/mg
half-life [6]: 1.42 h

SMILES: C=CC(=O)N(c1ccc(O[C@@H]2CC[C@@H](N)C2)cc1)[C@@H](C)c1ccc(Cl)cc1
EC50 [1]: 1.1 µM

SMILES: C[C@@H](c1ccc(Cl)cc1)N(C(=O)/C=C/CN(C)C)c1ccc(O[C@@H]2CC[C@@H](N)C2)cc1
IC50 [2]: 0.09 µM

SMILES: CN1CCC[C@@H]1/C=C/C(=O)N(Cc1ccc(Cl)cc1)c1ccc(O[C@@H]2CC[C@@H](N)C2)cc1
IC50 [2]: 0.24 µM

SMILES: C=CC(=O)N(c1ccc(O[C@@H]2CC[C@@H](N)C2)cc1)[C@H](c1ccc(Cl)cc1)c1cncnc1
EC50 [1]: 0.12 µM
IC50 [2]: 0.033 µM

SMILES: C=CC(=O)N(c1ccc(O[C@@H]2CC[C@@H](N)C2)cc1)[C@@H](CC(C)(C)O)c1ccc(Cl)cc1
IC50 [19]: > 100 µM
EC50 [1]: 0.52 µM
IC50 [2]: 0.033 µM

SMILES: C=CC(=O)N(c1ccc(O[C@@H]2CC[C@@H](NC(=O)NCCN(C)C)C2)cc1)[C@@H](C)c1ccc(Cl)cc1
EC50 [1]: 0.5 µM
IC50 [2]: 0.05 µM

SMILES: CC#CC(=O)N(c1ccc(O[C@@H]2CC[C@@H](N)C2)cc1)[C@@H](C)c1ccc(Cl)cc1
IC50 [2]: 0.3 µM

SMILES: C=CC(=O)N(c1ccc(O[C@@H]2CC[C@@H](N)C2)cc1)[C@@H](CC(N)=O)c1ccc(Cl)cc1
IC50 [19]: > 100 µM
EC50 [1]: 0.49 µM
IC50 [2]: 0.043 µM

SMILES: C=CC(=O)N(c1ccc(O[C@@H]2CC[C@@H](N)C2)cc1)[C@@H](CNS(C)(=O)=O)c1ccc(Cl)cc1
IC50 [19]: > 100 µM
EC50 [1]: 0.35 µM
IC50 [2]: 0.031 µM

SMILES: C=CC(=O)N(c1ccc(O[C@@H]2CC[C@@H](N)C2)cc1F)[C@@H](C)c1ccc(Cl)cc1
EC50 [1]: 0.41 µM
IC50 [2]: 0.048 µM

More lines, in order of falling IC50 [2], values ahead:

EC50 [1]: 0.14 µM
IC50 [2]: 0.018 µM
EC50 [16]: 0.17 µM
SMILES: C=CC(=O)N(c1ccc(O[C@@H]2CC[C@@H](N)C2)cc1)[C@@H](C[C@H](C)O)c1ccc(Cl)cc1

AUC at 24 h [9]: 0.19 µM·h
hepatocyte CLint [7]: 69 µL/min/1e6 cells
EC50 [1]: 0.083 µM
logD at 4 h [3]: 3.7
Papp A→B at 2 h [10]: < 11 ×10⁻⁶ cm/s
IC50 [2]: 0.0085 µM
hepatocyte CLint [8]: 7.4 µL/min/1e6 cells
IC50 [11]: > 30 µM
bioavailability [12]: 37%
half-life [13]: 3.1 h
Cmax [14]: 53 nM
hepatocyte CLint ([4]; rat hepatocytes, read-out: CLH): 59 µL/min/1e6 cells
Vdss [15]: 4 L/kg
EC50 [16]: 0.19 µM
IC50 [17]: > 30 µM
fraction unbound [18]: 0.027
SMILES: C=CC(=O)N(c1ccc(O[C@@H]2CC[C@@H](NC(=O)N[C@@H]3CCS(=O)(=O)C3)C2)c(F)c1)[C@@H](C)c1ccc(Cl)cc1

hepatocyte CLint [7]: 17 µL/min/1e6 cells
EC50 [1]: 0.052 µM
logD at 4 h [3]: 2.5
IC50 [2]: 0.0085 µM
hepatocyte CLint [8]: 1.5 µL/min/1e6 cells
IC50 [11]: > 30 µM
hepatocyte CLint ([4]; rat hepatocytes, read-out: CLH): 28 µL/min/1e6 cells
EC50 [16]: 0.11 µM
IC50 [17]: > 30 µM
SMILES: C[C@@H](c1ccc(Cl)cc1)N(C(=O)/C=C/CN(C)C)c1ccc(O[C@@H]2CC[C@@H](NC(=O)N[C@@H]3CCS(=O)(=O)C3)C2)c(F)c1

AUC at 24 h [9]: 0.036 µM·h
hepatocyte CLint [7]: 42 µL/min/1e6 cells
EC50 [1]: 0.038 µM
logD at 4 h [3]: 4.2
Papp A→B at 2 h [10]: 16 ×10⁻⁶ cm/s
IC50 [2]: 0.0054 µM
hepatocyte CLint [8]: 11 µL/min/1e6 cells
IC50 [11]: > 30 µM
bioavailability [12]: 16%
half-life [13]: 0.75 h
Cmax [14]: 15 nM
hepatocyte CLint ([4]; rat hepatocytes, read-out: CLH): 55 µL/min/1e6 cells
Vdss [15]: 4.1 L/kg
EC50 [16]: 0.048 µM
IC50 [17]: > 30 µM
fraction unbound [18]: 0.013
SMILES: C=CC(=O)N(c1ccc(O[C@@H]2CC[C@@H](NC(=O)N[C@@H]3CCS(=O)(=O)C3)C2)c(Cl)c1)[C@@H](C)c1ccc(Cl)cc1

hepatocyte CLint [7]: 45 µL/min/1e6 cells
EC50 [1]: 0.079 µM
logD at 4 h [3]: 2.2
IC50 [2]: 0.005 µM
hepatocyte CLint [8]: 25 µL/min/1e6 cells
hepatocyte CLint ([4]; rat hepatocytes, read-out: CLH): 74 µL/min/1e6 cells
SMILES: C=CC(=O)N(c1ccc(O[C@@H]2CC[C@@H](NC(=O)N[C@@H]3CCS(=O)(=O)C3)C2)c(F)c1)[C@@H](CC(N)=O)c1ccc(Cl)cc1

hepatocyte CLint [7]: 73 µL/min/1e6 cells
EC50 [1]: 0.03 µM
logD at 4 h [3]: 2.8
IC50 [2]: 0.0039 µM
hepatocyte CLint [8]: 6.1 µL/min/1e6 cells
hepatocyte CLint ([4]; rat hepatocytes, read-out: CLH): 14 µL/min/1e6 cells
EC50 [16]: 0.087 µM
SMILES: C=CC(=O)N(c1ccc(O[C@@H]2CC[C@@H](NC(=O)NCC(C)(C)N(C)C)C2)c(F)c1)[C@@H](C)c1ccc(Cl)cc1
